pIC50, pKd: −log10 of the molar value. Read-outs that look alike come from different tables or passages of the source.
Key:
CDK7 = CDK7 (Homo sapiens (Human), UniProt P50613); experiment: Biochemical assay for CDK7, LANCE TR-FRET; conditions: read-out: CDK 7 IC50
Method: The inhibitory activity of the test compounds was assessed by the LANCE TR-FRET assay, which detects the ATP-dependent phosphorylation of an ULight-myelin basic protein (MBP) substrate peptide (100 nM) by CDK7 (10 nM). Briefly, the enzyme reaction was run in reaction buffer (20 mM HEPES (pH 7.5), 10 mM MgCl2, 0.01% Triton x, 100 μM Sodium Orthovanadate, 1 mM DTT). The assay was performed in 384-well plate. The end concentration of the ATP substrate was 1 mM/100 μM, and that of the ULight-MBP substrate peptide was 100 nM, and of CDK7 was 10 nM. Pre-incubation of the compound and enzyme was performed for 60 min at room temperature. After 60 min incubation at room temperature, the reaction was terminated by the addition of 40 mM EDTA and 1 nM Eu-labeled anti-phospho-MBP-binding protein antibody in the buffer. […] The readout was calculated as (acceptor counts/donor counts)×1000. The IC50 values were derived by fitting a sigmoidal dose-response curve to a plot of assay readout over inhibitor concentration.

CDK12 [1] = biological target: T1, CDK12 (Homo sapiens (Human), UniProt Q9NYV4); experiment: Biochemical assay for CDK12 (Kd determination), kinase-tagged phage/qPCR competition binding
Method: Kinase-tagged T7 phage strains were grown in parallel in 24-well blocks in an E. coli host derived from the BL21 strain. E. coli were grown to log-phase and infected with T7 phage from a frozen stock (multiplicity of infection=0.4) and incubated with shaking at 32° C. until lysis (90-150 minutes). The lysates were centrifuged (6,000×g) and filtered (0.2 μm) to remove cell debris. The remaining kinases were produced in HEK-293 cells and subsequently tagged with DNA for qPCR detection. […] The liganded beads were blocked with excess biotin and washed with blocking buffer (SeaBlock (Pierce), 1% BSA, 0.05% Tween 20, 1 mM DTT) to remove unbound ligand and to reduce non-specific phage binding. […] Test compounds were prepared as 40× stocks in 100% DMSO and directly diluted into the assay. All reactions were performed in polypropylene 384-well plates in a final volume of 0.02 ml. […] The kinase concentration in the eluates was measured by qPCR.
Target sequence in this assay (Q9NYV4 whole entry, species assumed): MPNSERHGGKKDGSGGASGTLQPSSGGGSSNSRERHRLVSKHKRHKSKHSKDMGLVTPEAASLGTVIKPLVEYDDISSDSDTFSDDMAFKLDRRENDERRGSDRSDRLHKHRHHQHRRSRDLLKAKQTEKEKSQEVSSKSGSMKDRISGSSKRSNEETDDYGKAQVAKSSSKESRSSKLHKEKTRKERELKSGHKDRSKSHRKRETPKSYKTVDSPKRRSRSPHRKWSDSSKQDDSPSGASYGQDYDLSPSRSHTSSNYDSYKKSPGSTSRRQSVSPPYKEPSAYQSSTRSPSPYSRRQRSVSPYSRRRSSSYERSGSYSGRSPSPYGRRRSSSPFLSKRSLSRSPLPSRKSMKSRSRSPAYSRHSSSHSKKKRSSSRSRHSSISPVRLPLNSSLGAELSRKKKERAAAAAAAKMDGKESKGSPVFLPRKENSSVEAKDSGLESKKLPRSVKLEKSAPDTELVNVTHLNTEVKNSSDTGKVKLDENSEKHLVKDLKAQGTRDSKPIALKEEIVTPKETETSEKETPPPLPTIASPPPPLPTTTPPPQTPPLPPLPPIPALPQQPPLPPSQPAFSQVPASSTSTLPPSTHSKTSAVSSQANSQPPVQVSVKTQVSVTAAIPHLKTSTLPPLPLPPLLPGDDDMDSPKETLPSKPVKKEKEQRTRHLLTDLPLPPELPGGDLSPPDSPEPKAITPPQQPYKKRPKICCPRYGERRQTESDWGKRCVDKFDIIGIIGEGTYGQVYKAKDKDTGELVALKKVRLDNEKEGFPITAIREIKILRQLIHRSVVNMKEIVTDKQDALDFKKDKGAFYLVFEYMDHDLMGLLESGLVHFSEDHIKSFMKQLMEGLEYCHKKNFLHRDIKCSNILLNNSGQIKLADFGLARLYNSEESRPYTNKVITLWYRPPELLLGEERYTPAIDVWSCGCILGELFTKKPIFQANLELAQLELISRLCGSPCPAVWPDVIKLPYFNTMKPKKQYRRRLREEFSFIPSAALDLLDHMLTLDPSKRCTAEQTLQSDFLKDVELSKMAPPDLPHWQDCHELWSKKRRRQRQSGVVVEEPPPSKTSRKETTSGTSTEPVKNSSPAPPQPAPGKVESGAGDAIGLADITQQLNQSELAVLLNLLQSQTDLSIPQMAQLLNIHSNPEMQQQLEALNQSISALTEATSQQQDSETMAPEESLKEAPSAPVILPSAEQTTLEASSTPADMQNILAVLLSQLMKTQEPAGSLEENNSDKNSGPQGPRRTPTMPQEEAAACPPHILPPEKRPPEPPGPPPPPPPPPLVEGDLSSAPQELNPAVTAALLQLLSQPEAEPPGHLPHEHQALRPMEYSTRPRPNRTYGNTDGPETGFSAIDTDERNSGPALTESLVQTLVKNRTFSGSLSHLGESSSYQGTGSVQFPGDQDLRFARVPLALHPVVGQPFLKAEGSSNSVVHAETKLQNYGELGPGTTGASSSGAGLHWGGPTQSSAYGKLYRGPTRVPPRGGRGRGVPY

CDK12 [2] = biological target: T1, CDK12; experiment: Biochemical assay for CDK12 (IC50 determination), LANCE TR-FRET; conditions: for pIC50: ATP 100 μM, 60 min pre-incubation
Method: The inhibitory activity of the test compounds was assessed by the LANCE TR-FRET assay, which detects the ATP-dependent phosphorylation of an ULight-4E-BP1 (Thr37/Thr46) substrate peptide (100 nM) by CDK12 (30 nM). Briefly, the enzyme reaction was run in reaction buffer (25 mM HEPES (pH 7.5), 10 mM MgCl2, 0.01% BSA, 0.01% Triton x, 1 mM DTT). The assay was performed in 384-well plate format. The end concentration of the ATP substrate was 100 μM, and that of the ULight-4E-BP1 (Thr37/Thr46) substrate peptide was 100 nM, and of CDK12 was 30 nM. Pre-incubation of the compound and enzyme was performed for 60 min at room temperature. After 60 min incubation at room temperature, the reaction was terminated by the addition of 40 mM EDTA and 0.5 nM Eu-labeled anti-phospho-eIF4E-binding protein (Thr37/46) antibody in LANCE detection buffer. […] The readout was calculated as (acceptor counts/donor counts)×1000. The IC50 values were derived by fitting a sigmoidal dose-response curve to a plot of assay readout over inhibitor concentration.
Target sequence in this assay (Q9NYV4 whole entry, looked up, species assumed): as the sequence (Q9NYV4 whole entry, species assumed) above
Target sequence in this assay (O75909 whole entry partner, looked up, species assumed): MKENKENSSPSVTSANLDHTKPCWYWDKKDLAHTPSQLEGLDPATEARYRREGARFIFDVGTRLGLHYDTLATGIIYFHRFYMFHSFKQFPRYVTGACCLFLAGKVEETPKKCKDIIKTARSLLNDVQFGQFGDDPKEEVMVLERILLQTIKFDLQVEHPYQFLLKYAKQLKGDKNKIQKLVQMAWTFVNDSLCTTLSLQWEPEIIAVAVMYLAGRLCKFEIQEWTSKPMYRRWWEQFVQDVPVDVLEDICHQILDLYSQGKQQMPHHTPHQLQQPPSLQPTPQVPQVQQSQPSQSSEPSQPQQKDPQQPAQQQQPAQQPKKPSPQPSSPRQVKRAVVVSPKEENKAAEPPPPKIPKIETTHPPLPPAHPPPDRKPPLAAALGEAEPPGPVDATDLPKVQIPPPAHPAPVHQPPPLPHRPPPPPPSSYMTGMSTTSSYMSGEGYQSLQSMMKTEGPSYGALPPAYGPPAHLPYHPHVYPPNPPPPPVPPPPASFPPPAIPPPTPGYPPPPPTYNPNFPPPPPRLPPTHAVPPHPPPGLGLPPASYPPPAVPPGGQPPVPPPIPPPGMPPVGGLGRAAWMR

CDK13 = CDK13 (Homo sapiens (Human), UniProt Q14004); experiment: Biochemical assay for CDK13, LanthaScreen Eu Kinase Binding Assay; conditions: for pIC50: kinase tracer 236 100 nM; for Ratio CDK7/CDK13: ratio of IC50
Text: Binding of an inhibitor to the kinase competes for binding with the tracer, resulting in a loss of FRET signal.

CDK12 [3] = biological target: T1, CDK12; experiment: CDK12 plate based target engagement assay in Jurkat cells; type: cell-based
Method: Jurkat cells were treated with varying concentrations of the compound for 6 hours. The DMSO concentration was maintained at 0.1%. Cells were harvested and lysed. 200 μg of the lysate was incubated with 1 μM Bio-THZ531 in the presence of 1 mM DTT and incubated on a rocker at 4° C. overnight. 100 μL of this sample was added to pre-washed streptavidin coated plates and incubated at room temperature on a rocker for 2 hours. The plates were washed and incubated with CDK12 antibody for overnight at 4° C. Next day the plate was washed and incubated for 2 hours with HRP labelled anti rabbit secondary antibody. Bio-THZ531 bound CDK12 was determined using TMB substrate. […] Percentage CDK12 occupancy with the test compound was calculated over untreated control. Occupancy 50 was calculated by fitting the dose response data to sigmoidal curve fitting equation using GraphPad Prism software V5.
Target sequence in this assay (Q9NYV4 whole entry, looked up): as the sequence (Q9NYV4 whole entry, species assumed) above
Target sequence in this assay (O75909 whole entry partner, looked up): as the sequence (O75909 whole entry partner, looked up, species assumed) above

[4] = ATP 1 mM/100 μM, 60 min pre-incubation

Chain of CDK13 (Q14004 whole entry, looked up, species assumed): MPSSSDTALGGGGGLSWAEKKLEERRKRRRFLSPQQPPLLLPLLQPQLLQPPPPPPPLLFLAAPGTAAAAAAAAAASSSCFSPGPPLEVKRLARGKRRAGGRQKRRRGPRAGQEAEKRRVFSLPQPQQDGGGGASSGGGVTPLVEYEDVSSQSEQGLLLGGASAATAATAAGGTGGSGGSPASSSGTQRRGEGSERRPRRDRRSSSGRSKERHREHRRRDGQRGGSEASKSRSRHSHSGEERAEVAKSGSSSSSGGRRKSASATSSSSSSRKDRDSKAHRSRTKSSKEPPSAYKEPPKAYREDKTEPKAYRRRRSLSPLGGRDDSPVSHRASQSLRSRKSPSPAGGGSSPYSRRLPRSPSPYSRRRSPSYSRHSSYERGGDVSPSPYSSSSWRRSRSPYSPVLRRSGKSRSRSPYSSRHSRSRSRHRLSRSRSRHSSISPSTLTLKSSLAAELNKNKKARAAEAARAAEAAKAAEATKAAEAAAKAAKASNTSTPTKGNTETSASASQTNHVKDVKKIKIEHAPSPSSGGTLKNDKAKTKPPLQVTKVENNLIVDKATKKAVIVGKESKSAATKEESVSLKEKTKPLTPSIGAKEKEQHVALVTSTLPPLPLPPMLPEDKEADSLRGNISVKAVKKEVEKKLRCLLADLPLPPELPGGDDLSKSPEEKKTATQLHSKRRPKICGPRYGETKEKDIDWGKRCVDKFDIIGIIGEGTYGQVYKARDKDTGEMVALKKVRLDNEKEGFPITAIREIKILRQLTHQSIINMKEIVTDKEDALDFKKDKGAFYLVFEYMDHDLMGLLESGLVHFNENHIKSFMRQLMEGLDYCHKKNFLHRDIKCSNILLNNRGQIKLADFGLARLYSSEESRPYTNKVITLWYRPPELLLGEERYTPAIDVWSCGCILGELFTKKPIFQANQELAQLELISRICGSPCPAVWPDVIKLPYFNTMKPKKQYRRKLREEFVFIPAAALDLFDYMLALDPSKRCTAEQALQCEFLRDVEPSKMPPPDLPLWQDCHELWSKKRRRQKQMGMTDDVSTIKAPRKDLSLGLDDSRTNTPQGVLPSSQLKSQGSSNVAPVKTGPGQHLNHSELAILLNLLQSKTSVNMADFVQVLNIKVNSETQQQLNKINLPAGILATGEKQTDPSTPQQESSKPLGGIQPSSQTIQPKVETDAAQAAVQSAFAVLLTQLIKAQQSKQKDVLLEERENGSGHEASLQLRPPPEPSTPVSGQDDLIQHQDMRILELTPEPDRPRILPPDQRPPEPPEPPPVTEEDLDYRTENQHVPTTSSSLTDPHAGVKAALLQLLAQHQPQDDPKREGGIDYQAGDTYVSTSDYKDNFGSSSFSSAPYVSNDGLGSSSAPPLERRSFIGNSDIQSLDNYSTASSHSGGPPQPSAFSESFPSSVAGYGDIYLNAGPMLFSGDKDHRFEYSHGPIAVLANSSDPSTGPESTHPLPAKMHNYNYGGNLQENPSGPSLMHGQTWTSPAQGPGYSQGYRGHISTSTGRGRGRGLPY
Chain of CDK13 (O75909 whole entry partner, looked up, species assumed): as the sequence (O75909 whole entry partner, looked up, species assumed) above
Chain of CDK7 (P50613 whole entry, looked up, species assumed): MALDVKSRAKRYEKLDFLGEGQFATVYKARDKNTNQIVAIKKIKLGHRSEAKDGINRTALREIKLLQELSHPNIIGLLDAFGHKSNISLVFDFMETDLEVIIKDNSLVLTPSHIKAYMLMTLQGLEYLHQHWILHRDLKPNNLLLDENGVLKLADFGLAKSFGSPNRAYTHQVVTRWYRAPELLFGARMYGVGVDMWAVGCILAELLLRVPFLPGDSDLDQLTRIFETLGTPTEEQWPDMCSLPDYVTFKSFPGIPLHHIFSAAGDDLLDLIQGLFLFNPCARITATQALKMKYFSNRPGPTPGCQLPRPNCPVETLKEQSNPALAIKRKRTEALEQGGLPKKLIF
Chain of CDK7 (P51946 whole entry partner, looked up, species assumed): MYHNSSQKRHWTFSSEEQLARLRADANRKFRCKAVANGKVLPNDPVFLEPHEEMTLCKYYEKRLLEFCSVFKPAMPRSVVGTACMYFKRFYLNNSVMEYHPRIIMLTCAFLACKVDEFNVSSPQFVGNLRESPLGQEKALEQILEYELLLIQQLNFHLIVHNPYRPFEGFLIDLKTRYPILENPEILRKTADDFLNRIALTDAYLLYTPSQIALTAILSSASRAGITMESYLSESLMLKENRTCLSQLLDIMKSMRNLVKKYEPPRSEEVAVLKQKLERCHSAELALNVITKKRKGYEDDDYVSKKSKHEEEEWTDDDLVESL
Chain of CDK7 (P51948 whole entry partner, looked up, species assumed): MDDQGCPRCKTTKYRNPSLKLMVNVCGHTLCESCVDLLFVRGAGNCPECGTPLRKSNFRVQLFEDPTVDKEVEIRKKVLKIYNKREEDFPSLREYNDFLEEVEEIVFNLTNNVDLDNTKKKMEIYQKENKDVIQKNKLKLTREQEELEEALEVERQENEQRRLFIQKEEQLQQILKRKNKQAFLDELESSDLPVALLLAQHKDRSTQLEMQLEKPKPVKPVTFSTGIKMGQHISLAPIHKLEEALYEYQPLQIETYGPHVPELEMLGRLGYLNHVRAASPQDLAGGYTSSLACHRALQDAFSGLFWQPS

| SMILES | pIC50 (CDK7; [4]) | pKd (CDK12 [1]) | Ratio CDK7/CDK12 (CDK12 [2]) | pIC50 (CDK12 [2]) | pIC50 (CDK13) | Ratio CDK7/CDK13 (CDK13) | CDK12 Target Occupancy (Tocc50) μM in Jurkat cells (CDK12 [3]; Jurkat cells, 6 hours) [µM] | pIC50 (CDK7) | CDK12 Target Occupancy (Tocc50) μM in Jurkat cells (CDK12 [3]) [µM] |
| --- | --- | --- | --- | --- | --- | --- | --- | --- | --- |
| C=CC(=O)N1CC=C(c2ccc(C(C)C(=O)Nc3cc(C4CC4)[nH]n3)cn2)CC1 (single isomer, unassigned) [Compound 5, 2-(1′-acryloyl-1′,2′,3′,6′-tetrahydro-[2,4′-bipyridin]-5-yl)-N-(5-cyclopropyl-1H-pyrazol-3-yl)propanamide] | < 5.00 | 7.00 to 7.60 | 7.64 | 5.88 | 7.11 | 129.87 | – | – | – |
| C=CC(=O)NC1CCC(c2ccc(C(C)C(=O)Nc3cc(C4CC4)n[nH]3)cc2)CC1 (single isomer, unassigned) [Compound 10, N-(4-(4-(1-((5-cyclopropyl-1H-pyrazol-3-yl)amino)-1-oxopropan-2-yl)phenyl)cyclohexyl)acrylamide] | 5.26 | > 7.60 | – | 6.13 | 7.74 | – | – | – | – |
| C=CC(=O)NC1CCC(c2ccc(C(C)C(=O)Nc3cc(C4CC4)n[nH]3)cc2)CC1 (single isomer, unassigned) [Compound 11, N-(4-(4-(1-((5-cyclopropyl-1H-pyrazol-3-yl)amino)-1-oxopropan-2-yl)phenyl)cyclohexyl)acrylamide] | 5.44 | 7.00 to 7.60 | – | 5.99 | 7.35 | – | – | – | – |
| C=CC(=O)N1CCN(c2ccc(C(C)C(=O)Nc3cc(C4CC4)[nH]n3)cc2)CC1 (single isomer, unassigned) [Compound 18, 2-(4-(4-acryloylpiperazin-1-yl)phenyl)-N-(5-cyclopropyl-1H-pyrazol-3-yl)propanamide] | 5.63 | 7.00 to 7.60 | – | 6.62 | 7.93 | – | – | – | – |
| C=CC(=O)N1CC=C(c2ccc(C(C)C(=O)Nc3cc(C4CC4)[nH]n3)cn2)CC1 (stereo not drawn) [Compound 4, 2-(1′-acryloyl-1′,2′,3′,6′-tetrahydro-[2,4′-bipyridin]-5-yl)-N-(5-cyclopropyl-1H-pyrazol-3-yl)propanamide] | 5.77 | > 7.60 | 23.75 | 7.14 | 8.52 | 570.0 | – | – | – |
| C=CC(=O)N1CC=C(c2ccc(C(C(=O)Nc3cc(C4CC4)[nH]n3)C(C)C)cn2)CC1 (stereo not drawn) [Compound 7, 2-(1′-acryloyl-1′,2′,3′,6′-tetrahydro-[2,4′-bipyridin]-5-yl)-N-(5-cyclopropyl-1H-pyrazol-3-yl)-3-methylbutanamide] | 6.13 | < 7.00 | – | – | 6.40 | 1.86 | – | – | – |
| C=CC(=O)N1CCC=C(c2ccc(C(C)C(=O)Nc3cc(C4CC4)[nH]n3)cc2)CC1 (stereo not drawn) [Compound 9, 2-(4-(1-acryloyl-2,3,6,7-tetrahydro-1H-azepin-4-yl)phenyl)-N-(5-cyclopropyl-1H-pyrazol-3-yl)propanamide] | 5.18 | 7.00 to 7.60 | 27.43 | 6.62 | 7.68 | 313.57 | – | – | – |
| C=CC(=O)N1CCC(c2ccc([C@H](C)C(=O)Nc3cc(C4CC4)[nH]n3)cc2)CC1 [Compound 12, (S)-2-(4-(1-acryloylpiperidin-4-yl)phenyl)-N-(5-cyclopropyl-1H-pyrazol-3-yl)propanamide] | 5.55 | – | 18.74 | 6.82 | 8.15 | 404.28 | 0.080 | – | – |
| C=CC(=O)N1CCN(c2ccc(C(C)C(=O)Nc3cc(C4CC4)[nH]n3)cn2)CC1 (stereo not drawn) [Compound 20, 2-(6-(4-acryloylpiperazin-1-yl)pyridin-3-yl)-N-(5-cyclopropyl-1H-pyrazol-3-yl)propanamide] | 5.68 | > 7.60 | 21.11 | 7.00 | 7.03 | 22.23 | – | – | – |
| C=CC(=O)N1CCC=C(c2ccc(C(C)C(=O)Nc3cc(C4CC4)[nH]n3)cn2)C1 (stereo not drawn) [Compound 35, 2-(1′-acryloyl-1′,2′,5′,6′-tetrahydro-[2,3′-bipyridin]-5-yl)-N-(5-cyclopropyl-1H-pyrazol-3-yl)propanamide] | 6.82 | > 7.60 | 5.1 | 7.52 | 8.22 | 25.5 | – | – | – |
| C=CC(=O)N1CC=C(c2ccc(C(C)C(=O)Nc3cc(C4CC4)[nH]n3)cc2F)CC1 (stereo not drawn) [Compound 44, 2-(4-(1-acryloyl-1,2,3,6-tetrahydropyridin-4-yl)-3-fluorophenyl)-N-(5-cyclopropyl-1H-pyrazol-3-yl)propanamide] | 6.06 | – | 97.77 | 8.05 | 8.24 | 151.72 | 0.009 | – | – |
| C=CC(=O)N1CC=C(c2ccc(C(C)C(=O)Nc3cc(C4CC4)[nH]n3)cn2)C1 (stereo not drawn) [Compound 46, 2-(6-(1-acryloyl-2,5-dihydro-1H-pyrrol-3-yl)pyridin-3-yl)-N-(5-cyclopropyl-1H-pyrazol-3-yl)propanamide] | – | – | – | 7.49 | 8.16 | – | 0.003 | – | – |
| C#CC(=O)N1CC=C(c2ccc(C(C)C(=O)Nc3cc(C4CC4)[nH]n3)cn2)CC1 (stereo not drawn) [Compound 50, N-(5-cyclopropyl-1H-pyrazol-3-yl)-2-(1′-propioloyl-1′,2′,3′,6′-tetrahydro-[2,4′-bipyridin]-5-yl)propanamide] | – | – | – | – | 8.15 | 1.71 | – | 7.92 | 0.038 |
| CC#CC(=O)N1CCC=C(c2ccc(C(C)C(=O)Nc3cc(C4CC4)[nH]n3)cn2)C1 (stereo not drawn) [Compound 52, 2-(1′-(but-2-ynoyl)-1′,2′,5′,6′-tetrahydro-[2,3′-bipyridin]-5-yl)-N-(5-cyclopropyl-1H-pyrazol-3-yl)propanamide] | 5.66 | – | 9.64 | 6.64 | 7.72 | 115.26 | 0.179 | – | – |
| C#CC(=O)N1CCC=C(c2ccc(CC(=O)Nc3cc(C4CC4)[nH]n3)cn2)C1 [Compound 58, N-(5-cyclopropyl-1H-pyrazol-3-yl)-2-(1′-propioloyl-1′,2′,5′,6′-tetrahydro-[2,3′-bipyridin]-5-yl)acetamide] | – | – | – | 7.31 | 7.08 | – | 0.0097 | – | – |
| C#CC(=O)N1CC=C(c2ccc(CC(=O)Nc3cc(C4CC4)[nH]n3)cn2)C1 [Compound 60, N-(5-cyclopropyl-1H-pyrazol-3-yl)-2-(6-(1-propioloyl-2,5-dihydro-1H-pyrrol-3-yl)pyridin-3-yl)acetamide] | – | – | – | 7.92 | – | – | 0.0088 | – | – |
| N#CN1CCC=C(c2ccc(CC(=O)Nc3cc(C4CC4)[nH]n3)cn2)C1 [Compound 61, 2-(1′-cyano-1′,2′,5′,6′-tetrahydro-[2,3′-bipyridin]-5-yl)-N-(5-cyclopropyl-1H-pyrazol-3-yl)acetamide] | – | – | – | 8.22 | – | – | 0.007 | – | – |

Reference: patent US10894786B2, “Substituted pyrazole derivatives as selective CDK12/13 inhibitors” (Aurigene Discovery Technologies Limited, priority 2018, dated 2021)
